Assay results published in patent US8993585B2, “Cyclic amine substituted pyrimidinediamines as PKC inhibitors” (Rigel Pharmaceuticals, Inc., priority 2007, dated 2015).

What was measured:
PKC epsilon = target: T1, PKC epsilon (Homo sapiens, UniProt Q02156); assay: PKC assay, fluorescence polarization (Example 2), PKC epsilon; assay type: biochemical; conditions: 5 μM ATP
T1 construct: purchased Upstate Biotechnologies, Temecula, CA 14-518
T1 sequence (Q02156 1-737): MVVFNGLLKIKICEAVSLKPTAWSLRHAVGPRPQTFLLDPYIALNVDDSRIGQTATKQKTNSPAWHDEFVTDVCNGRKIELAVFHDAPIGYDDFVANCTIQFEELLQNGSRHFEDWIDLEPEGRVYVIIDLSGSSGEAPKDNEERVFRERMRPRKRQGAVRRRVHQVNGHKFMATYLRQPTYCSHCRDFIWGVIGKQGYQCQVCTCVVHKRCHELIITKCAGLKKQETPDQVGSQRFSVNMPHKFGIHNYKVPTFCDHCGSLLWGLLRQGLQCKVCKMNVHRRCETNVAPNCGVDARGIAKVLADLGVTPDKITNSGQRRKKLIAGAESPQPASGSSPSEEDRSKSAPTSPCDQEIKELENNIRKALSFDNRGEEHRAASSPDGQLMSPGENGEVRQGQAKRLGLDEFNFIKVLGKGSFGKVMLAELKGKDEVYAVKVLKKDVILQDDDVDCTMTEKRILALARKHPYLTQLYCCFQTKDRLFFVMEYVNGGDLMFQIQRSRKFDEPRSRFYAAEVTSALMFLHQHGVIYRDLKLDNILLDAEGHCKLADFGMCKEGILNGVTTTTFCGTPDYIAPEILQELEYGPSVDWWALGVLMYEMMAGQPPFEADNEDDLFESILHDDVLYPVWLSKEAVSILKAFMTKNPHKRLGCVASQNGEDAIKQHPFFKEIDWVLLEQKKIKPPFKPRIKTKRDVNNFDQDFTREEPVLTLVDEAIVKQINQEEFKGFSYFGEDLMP
Experimental: (§1) The inhibition of PKC activity was measured by monitoring the production of phosphorylated peptide by fluorescence polarization at different concentrations of the inhibitor. Reactions were carried out in 96-well plate format with a total volume of 20 μL containing 20 mM HEPES, pH 7.4, 5 mM MgCl2, 0.2 mM CaCl2, 1 mM DTT, 0.02% Brij-35, 0.1 mg/mL phosphatidylserine, 0.02 mg/mL dioleoyl-sn-glycerol and 5 μM each of ATP and the peptide substrate. Compounds were first diluted serially in DMSO and then transferred to a solution containing the above concentrations of HEPES, MgCl2, CaCl2, DTT, and Brij-35 to yield 5× compound solutions in 2% DMSO, which was then added to the reaction solution. Reactions were initiated by the addition of PKC at a typical concentration as described in Table VI, and then allowed to incubate at room temperature for 20 min. At the end of this time, a combination of quench (EDTA) and detection (peptide tracer and antibody) reagents was added using the protocol of Invitrogen P2748.

PKC theta = target: T2, PKC theta (Homo sapiens, UniProt Q04759); assay: PKC assay, fluorescence polarization (Example 2), PKC theta; assay type: biochemical; conditions: 5 μM ATP
T2 construct: purchased Upstate Biotechnologies, Temecula, CA 14-444
T2 sequence (Q04759 whole entry): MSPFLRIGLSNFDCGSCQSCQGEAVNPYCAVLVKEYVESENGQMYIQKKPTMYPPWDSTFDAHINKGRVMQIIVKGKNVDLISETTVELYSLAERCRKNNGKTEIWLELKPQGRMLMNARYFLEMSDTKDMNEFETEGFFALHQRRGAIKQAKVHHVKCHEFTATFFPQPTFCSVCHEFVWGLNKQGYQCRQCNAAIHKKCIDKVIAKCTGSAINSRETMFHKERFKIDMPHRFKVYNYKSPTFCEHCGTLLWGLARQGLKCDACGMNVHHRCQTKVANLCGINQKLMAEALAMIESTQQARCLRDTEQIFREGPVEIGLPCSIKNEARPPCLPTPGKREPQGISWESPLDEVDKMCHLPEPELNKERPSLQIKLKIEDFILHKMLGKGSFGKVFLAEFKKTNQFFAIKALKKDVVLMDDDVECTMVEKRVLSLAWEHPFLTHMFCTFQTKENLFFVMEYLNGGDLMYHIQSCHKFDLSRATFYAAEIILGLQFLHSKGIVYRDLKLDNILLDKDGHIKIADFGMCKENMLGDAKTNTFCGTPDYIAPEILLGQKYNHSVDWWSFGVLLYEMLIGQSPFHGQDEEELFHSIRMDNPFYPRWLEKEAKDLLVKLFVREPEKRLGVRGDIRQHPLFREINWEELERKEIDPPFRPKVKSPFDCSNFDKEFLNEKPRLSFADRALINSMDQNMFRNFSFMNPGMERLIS
Method in brief: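 Phosphorylated peptide product detected by fluorescence polarization, with EDTA quench plus peptide tracer and antibody. Reaction in 20 mM HEPES pH 7.4, 5 mM MgCl2, 0.2 mM CaCl2, 1 mM DTT, 0.02% Brij-35, phosphatidylserine and dioleoyl-sn-glycerol, with 5 μM ATP and 5 μM peptide. Started with enzyme, 20 min at room temperature.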

Human primary T cells = assay: IL-2 ELISA, Human Primary T Cell, Anti-CD3+CD28+ (Example 3); assay type: cell-based; conditions: anti-CD3+CD28 stimulation
Method in brief: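 Human primary T cells, 100,000 per well, were pre-incubated with compound in Yssel's medium for 1 h at 37 °C. The counter-assay used 0.5 ng/ml PMA with 0.1 uM ionomycin final.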

PKC mu = target: T3, PKC mu (Homo sapiens, UniProt Q15139); assay: PKC assay, fluorescence polarization (Example 2), PKC mu; assay type: biochemical; conditions: 5 μM ATP
T3 sequence (Q15139 1-912): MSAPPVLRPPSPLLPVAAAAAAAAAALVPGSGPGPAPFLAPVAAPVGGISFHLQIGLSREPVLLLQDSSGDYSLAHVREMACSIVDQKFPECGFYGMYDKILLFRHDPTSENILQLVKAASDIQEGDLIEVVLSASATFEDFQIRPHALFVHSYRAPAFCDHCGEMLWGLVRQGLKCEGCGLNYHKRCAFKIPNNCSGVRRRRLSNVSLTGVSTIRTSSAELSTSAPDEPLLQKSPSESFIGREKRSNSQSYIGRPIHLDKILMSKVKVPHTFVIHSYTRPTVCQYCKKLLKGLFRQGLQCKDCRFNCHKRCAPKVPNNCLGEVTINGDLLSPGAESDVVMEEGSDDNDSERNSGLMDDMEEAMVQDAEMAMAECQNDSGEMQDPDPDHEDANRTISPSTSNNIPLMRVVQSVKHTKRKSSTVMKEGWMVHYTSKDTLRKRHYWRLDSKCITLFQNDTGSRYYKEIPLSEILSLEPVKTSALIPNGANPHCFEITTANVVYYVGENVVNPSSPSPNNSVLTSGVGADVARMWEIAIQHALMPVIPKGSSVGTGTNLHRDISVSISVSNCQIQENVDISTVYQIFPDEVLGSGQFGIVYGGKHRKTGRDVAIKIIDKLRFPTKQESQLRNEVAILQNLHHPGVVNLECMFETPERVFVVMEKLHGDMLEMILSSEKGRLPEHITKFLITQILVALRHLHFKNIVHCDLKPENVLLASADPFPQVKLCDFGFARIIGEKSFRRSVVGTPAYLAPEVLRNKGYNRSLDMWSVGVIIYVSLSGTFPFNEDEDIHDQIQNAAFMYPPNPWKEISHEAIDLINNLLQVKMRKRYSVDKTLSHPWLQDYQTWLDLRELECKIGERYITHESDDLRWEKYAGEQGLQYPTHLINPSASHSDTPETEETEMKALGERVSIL
Experimental: as §1, with “P2748. After a 30 min. period of incubation, the amount of phosphorylated peptide generated was measured by fluorescence polarization (Ex=485 nm, Em=535 nm) using a Tecan Polarian instrument.” for “P2748.”

| SMILES | IC50 (PKC epsilon) [nM] | IC50 (PKC theta) [nM] | IC50 (Human primary T cells; Homo sapiens, T-cell, 24 h) [nM] | IC50 (PKC mu) [nM] | IC50 (Human primary T cells; 24 hours) [nM] |
| --- | --- | --- | --- | --- | --- |
| CN1C(C)(C)CC(Nc2nc(Nc3ccc(C#N)c(C#N)c3)ncc2F)CC1(C)C [Compound I-141] | 249 | 3.29 | 245 | – | – |
| CN1C(C)(C)CC(Nc2nc(Nc3ccc(F)c(C#N)c3)ncc2Cl)CC1(C)C [Compound I-166] | 198 | 4.26 | 281 | – | – |
| CN1C(C)(C)CC(Nc2nc(Nc3ccc(-c4ccoc4)c(F)c3)ncc2F)CC1(C)C [Compound I-119] | 27.8 | 55.3 | 309 | – | – |
| COc1ccc(Nc2ncc(F)c(NC3CC(C)(C)N(C)C(C)(C)C3)n2)cc1OC(F)F [Compound I-239] | 54.6 | 2.06 | 99.1 | – | – |
| COc1ccc(Nc2ncc(C#N)c(NC3CC(C)(C)N(C)C(C)(C)C3)n2)cc1OC(F)F [Compound I-366] | 89.6 | 1.71 | 122 | – | – |
| COc1cc(Nc2ncc(F)c(NC3CC(C)(C)N(C)C(C)(C)C3)n2)cc(-n2cnnn2)c1 [Compound I-342] | 1.57 | 0.95 | 31.8 | – | – |
| COc1ccc(Nc2ncc(Cl)c(NC3CC(C)(C)N(C)C(C)(C)C3)n2)cc1OC(F)F [Compound I-341] | 53.2 | 0.55 | 45.6 | – | – |
| CC1(C)CC(Nc2nc(Nc3cc(OCC(F)(F)F)cc(OCC(F)(F)F)c3)ncc2F)CC(C)(C)N1 [Compound I-375] | 200 | 1.2 | 350 | – | – |
| COc1cc(Nc2ncc(Cl)c(NC3CC(C)(C)N(C)C(C)(C)C3)n2)cc(OC)c1 [Compound I-340] | 15.6 | 2.81 | 159 | – | – |
| CN1CCN(c2ccc(Nc3ncc(C(F)(F)F)c(NC4CC(C)(C)N(C)C(C)(C)C4)n3)cc2C(F)(F)F)CC1 [Compound I-38] | 506 | 16 | 196 | 33 | – |
| CN1C(C)(C)CC(Nc2nc(Nc3ccc(CN4CCOCC4)c(C#N)c3)ncc2F)CC1(C)C [Compound I-450] | 9 | 2.5 | – | – | 260 |
| CN1C(C)(C)CC(Nc2nc(Nc3ccc(N4CCOCC4)c(C(F)(F)F)c3)ncc2F)CC1(C)C [Compound I-224] | 19 | 29.1 | 112 | – | – |
| CN1CCN(c2ncc(Nc3ncc(F)c(NC4CC(C)(C)N(C)C(C)(C)C4)n3)cc2C(F)(F)F)CC1 [Compound I-273] | 4.87 | 3.34 | – | – | 217 |
| CN1C(C)(C)CC(Nc2nc(Nc3ccc(-c4cccnc4)c(C(F)(F)F)c3)ncc2F)CC1(C)C [Compound I-112] | 25.6 | 8.91 | 73.3 | – | – |

More lines, in order of falling IC50 (PKC epsilon), values ahead:

| IC50 (PKC epsilon) [nM] | IC50 (PKC theta) [nM] | IC50 (Human primary T cells; Homo sapiens, T-cell, 24 h) [nM] | IC50 (PKC mu) [nM] | SMILES | IC50 (Human primary T cells; 24 hours) [nM] |
| --- | --- | --- | --- | --- | --- |
| 413 | 50.4 | 129 | – | CN1C(C)(C)CC(Nc2nc(Nc3cc(Cl)cc(Cl)c3)ncc2F)CC1(C)C [Compound I-103] | – |
| 125 | 3.6 | 590 | – | Cc1nnnn1-c1cccc(Nc2ncc(C#N)c(NC3CC(C)(C)NC(C)(C)C3)n2)c1 [Compound I-463] | – |
| 51 | 4.92 | 305 | – | Cc1ccc(Nc2ncc(F)c(NC3CC(C)(C)N(C)C(C)(C)C3)n2)cc1-c1ccncc1 [Compound I-187] | – |
| 42 | 63.4 | 894 | – | CN1C(C)(C)CC(Nc2nc(Nc3ccc(N4CCCC4)c(C(F)(F)F)c3)ncc2F)CC1(C)C [Compound I-232] | – |
| 32.7 | 2.72 | 120 | – | Cc1ccc(Nc2ncc(Cl)c(NC3CC(C)(C)N(C)C(C)(C)C3)n2)cc1C#N [Compound I-168] | – |
| 29 | 5.99 | 174 | – | CN1C(C)(C)CC(Nc2nc(Nc3ccc(C(F)(F)F)c(N4CCN(S(C)(=O)=O)CC4)c3)ncc2F)CC1(C)C [Compound I-216] | – |
